Measured values from ChEMBL document CHEMBL4834416, “The Discovery of Novel ACA Derivatives as Specific TRPM2 Inhibitors that Reduce Ischemic Injury Both In Vitro and In Vivo” (J Med Chem, 2021).
Activity calls are given as the source filed them. The calls are words filed in the database; no cut-off is given here.

Key:
[1] = system: SH-SY5Y; test: Neuroprotective activity against oxygen glucose deprivation/reperfusion-induced cell death in human SH-SY5Y cells assessed as cell viability at 3 uM […] by CCK8 assay relative to control; format: functional
[2] = system: SH-SY5Y; test: Neuroprotective activity against oxygen glucose deprivation/reperfusion-induced cell death in human SH-SY5Y cells assessed as cell viability at 0.3 uM […] for 12 hrs by CCK8 assay relative to control; format: functional; details: read-out: Activity
[3] = AUC (0 to infinitive) in C57BL/6 mouse plasma at 100 mg/kg, IG by LC-MS/MS analysis; format: ADME, organism-based; design: route […], time infinity, dose 100 mg/kg; details: po
[4] = Toxicity in C57BL/6 mouse assessed as adverse effect at 100 mg/kg, IG; format: organism-based; details: in vivo, po
[5] = Tmax in C57BL/6 mouse plasma at 1 mg/kg, iv by LC-MS/MS analysis; format: ADME, organism-based
[6] = Cmax in C57BL/6 mouse plasma at 1 mg/kg, iv by LC-MS/MS analysis; format: ADME, organism-based; design: route intravenous, dose 1 mg/kg
[7] = AUC (0 to t) in C57BL/6 mouse plasma at 0.3 mg/kg, iv by LC-MS/MS analysis; format: ADME, organism-based; design: dose 0.3 mg/kg
[8] = AUC (0 to t) in C57BL/6 mouse plasma at 1 mg/kg, iv by LC-MS/MS analysis; format: ADME, organism-based; design: dose 1 mg/kg
[9] = Clearance in C57BL/6 mouse plasma at 10 mg/kg, IG by LC-MS/MS analysis; format: ADME, organism-based; details: po
[10] = system: Mus musculus; test: Neuroprotective activity in mouse model of transient middle cerebral artery occlusion-induced cerebral ischemia-reperfusion injury assessed as reduction in infarct volume at 1 mg/kg, iv treated for 3 hrs after onset of reperfusion by TTC staining based assay (reference value: 52 +/- 1.7%); format: functional; design: scale not given: the % may be the effect or the level left
[11] = system: Mus musculus; test: Neuroprotective activity in mouse model of transient middle cerebral artery occlusion-induced cerebral ischemia-reperfusion injury assessed as reduction neurological score at 0.3 mg/kg, iv treated for 3 hrs after onset of reperfusion by TTC staining based assay relative to control; format: functional, organism-based

**Q.** With `O=C(/C=C/c1ccc(-c2cccc(C(F)(F)F)c2)cc1)Nc1ccccc1C(=O)O` as the molecule, how does the Activity [1] read?
**A.** Its Activity is “Active”.

**Q.** What about the viability at 0.3 µM [2] of the same molecule?
**A.** Its viability at 0.3 µM is 68.7%.

**Q.** And the AUC(0-inf) [3]?
**A.** The AUC(0-inf) was 1870 µg·h/mL.

**Q.** What about the Activity [4] of the same molecule?
**A.** Its Activity is “Non-Toxic”.

**Q.** And the Tmax [5]?
**A.** Its Tmax is 4.8 min.

**Q.** What about the Cmax [6] of the same molecule?
**A.** The Cmax was 13000 ng/mL.

**Q.** And the AUC(0-t) [7]?
**A.** Its AUC(0-t) is 5200 ng·h/mL.

**Q.** What about the AUC(0-t) [8] of the same molecule?
**A.** Its AUC(0-t) is 18500 ng·h/mL.

**Q.** What about the CL/F [9] of the same molecule?
**A.** The CL/F was 1.04 mL/min/kg.

**Q.** What about the Activity [10] of the same molecule?
**A.** The Activity was 38.5%.

**Q.** And the Activity [11]?
**A.** The Activity was “inactive”.
